Legend:
[1] = test system: blast crisis CML (AML) cells; assay: Colony forming assay in methylcellulose media after Msi2 shRNA delivery; type: cell-based, mouse
Method: Lineage negative, NUP98-HOXA9-YFP positive cells from AML were sorted and infected retrovirally with either Vector-IRES-GFP or Numb-IRES-GFP. After 48 hours of infection, cells were sorted and serially plated on complete methylcellulose medium (Methocult GF M3434 from StemCell Technologies).
(§1) To determine if inhibiting Msi2 could impact the growth of established CML, and to rule out the possibility that the reduced incidence of leukemia in Gt mutants was due to developmental defects and examine if Msi2 knockdown affects AML maintenance, Msi expression was targeted using an alternate shRNA approach. A lineage-negative population was sorted from full blown AML cells, which contains AML stem cells. Lin− cells from NUP98-HOXA9/BCR-ABL-induced blast crisis leukemias were infected with either an shRNA retrovirus targeting Msi2 (shMsi; SEQ ID NO: 9) or firefly luciferase (shLuc; SEQ ID NO: 10) as a negative control and resorted, and Msi2 expression was analyzed by realtime RT-PCR. […] Error bars represent s.e.m. of triplicate PCRs (**p<0.01).
As a control, shRNA against LacZ was used. Error bars represent s.e.m. of triplicate PCRs (**p<0.01). […] Error bars represent s.e.m. of triplicate assay wells (**p<0.01). […] Error bars represent s.e.m. of triplicate PCRs (**p<0.01).

Msi2 transcript = assay: Msi2 knockdown measured by realtime RT-PCR; type: cell-based, mouse; conditions: Lin− cells from NUP98-HOXA9/BCR-ABL blast crisis leukemias; compared with shLuc control
Method: RNA was isolated using RNAqueous-Micro (Ambion), levels were equalized, and RNA was converted to cDNA using Superscript II reverse transcriptase (Invitrogen). Quantitative real time PCRs were performed using an iCycler (BioRad) by mixing cDNAs, iQ SYBR Green Supermix (BioRad) and gene specific primers. Results were normalized to the level of beta-2-microglobulin (B2m). Primer sequences are as follows: Numb-F, […] (SEQ ID NO: 1); Numb-R, […] (SEQ ID NO: 2); Msi1-F, […] (SEQ ID NO: 3); Msi1-R, […] (SEQ ID NO: 4); Msi2-F, […] (SEQ ID NO: 5); Msi2-R, […] (SEQ ID NO: 6); B2m-F, […] (SEQ ID NO: 7); B2m-R, […] (SEQ ID NO: 8).
as §1

blast crisis CML / AML = assay: Transplantation of shRNA-infected blast crisis CML/AML cells into irradiated mice; type: in vivo
Excerpt: Mouse models of CML were generated by transducing bone marrow stem and progenitor cells with retroviruses carrying BCR-ABL (chronic phase), or BCR-ABL and NUP98-HOXA9 (blast crisis phase) and transplanted into irradiated recipient mice. The development of CML was confirmed by flow cytometry and histopathology. Transgenic Notch reporter (TNR), Rag1−/−, and C57BL6/J were used as transplant donors, and C57Bl6/J CD45.1 and CD1 mice were used as transplant recipients. All mice were 8-12 weeks of age. Mice were bred and maintained on acidified water after transplantation in the animal care facility at Duke University Medical Center. All live animal experiments were performed according to protocols approved by the Duke University Institutional Animal Care and Use Committee. For Msi2 knockdown experiments, lineage negative blast crisis CML cells were infected with Msi2 or control Luciferase shRNA retroviral constructs and leukemia incidence monitored.
Bone marrow c-Kit+ or KLS cells from C57BL6/J or TNR mice were enriched and cultured overnight in X-vivo15 with 10% FBS, 50 μM 2-mercaptoethanol, 100 ng/mL SCF, and 20 ng/mL TPO in a 96 well U-bottom plate or 6 well plate. Subsequently, cells were infected with MSCV-BCR-ABL-IRES-YFP (or CFP) to generate CML, or MSCV-BCR-ABL-IRES-YFP (or CFP) and MSCV-NUP98-HOXA9-IRES-YFP (or NGFR) to generate AML. Cells were harvested 48 hours after infection and transplanted retro-orbitally into groups of 4-7 recipient mice. Recipients were lethally irradiated (10 Gy) for CML, and sublethally irradiated (7 Gy) for AML. For Numb overexpression, cells were infected with either MSCV-Numb-IRES-GFP (or hCD2) or MSCV-IRES-GFP (or hCD2) along with MSCV-BCR-ABL-IRES-YFP (or CFP) and MSCV-NUP98-HOXA9-IRES-NGFR (or YFP) and 20,000 to 100,000 sorted infected cells were transplanted per mouse. For secondary transplantation, cells from primary transplanted mice were sorted for either MSCV-Numb-IRES-GFP and MSCV-NUP98-HOXA9-YFP or MSCV-IRES-GFP and MSCV-NUP98-HOXA9-YFP, and 7,000 to 8,000 cells were transplanted per mouse. For ICN experiments, cells were infected with MSCV-ICN-IRES-CFP and MSCV-BCR-ABL-GFP, MSCV-ICN-IRES-CFP and MSCV-IRES-GFP, or MSCV-BCR-ABL-IRES-GFP and MSCV-IRES-CFP, and 10,000 to 20,000 KLS-derived or 200,000 to 500,000 c-kit+-derived sorted cells were transplanted per mouse. For the TNR mouse model, cells were infected with MSCV-BCR-ABL-IRES-YFP (or CFP) to generate CML or MSCV-BCR-ABL-IRES-YFP (or CFP) and MSCV-NUP98-HOXA9-IRES-NGFR to generate AML. 10,000 to 80,000 unsorted cells were transplanted per mouse. After transplantation, recipient mice were subsequently maintained on antibiotic water (sulfamethoxazole and trimethoprim) and evaluated daily for signs of morbidity, weight loss, failure to thrive, and splenomegaly. Premorbid animals were sacrificed by CO2 asphyxiation followed by cervical dislocation. Subsequently relevant tissues were harvested and analyzed by flow cytometry and histopathology.
Data shown is representative of two to three independent experiments.
The impact of Msi2 loss in AML propagation in vivo was also tested. Lin-negative cells from full blown AML were transduced either with an Msi2 shRNA retrovirus or luciferase shRNA virus, and the cells were transplanted into sublethally-irradiated mice. 11 of 13 mice transplanted with control knockdown AML became sick by 1 month post transplant.
Serial transplants were also done to test the presence of leukemia-initiating ability of control and Msi2 knockdown AML cells from the mice who suffered from leukemia.

Substance: shMsi: shRNA retrovirus targeting Msi2, SEQ ID NO: 9, 5′-CCCAGATAGCCTTAGAGACTAT-3′
- colony growth in vitro ([1]; established blast crisis CML cells, vs control shRNA): reduced colony growth in vitro
- reduction in the number of colonies formed ([1]; methylcellulose media, Msi2 knockdown AML cells): 50-70%
- reduction in Msi2 transcript levels (Msi2 transcript): 75-90%
- AML incidence in serial transplants (blast crisis CML / AML; 3000 or 10,000 cells transplanted): loss in AML incidence
- mice surviving beyond 1 month (blast crisis CML / AML; Lin-negative AML cells transduced, sublethally irradiated mice, 11 of 13 control mice sick by 1 month): more than half
- differentiation of leukemias that occurred (blast crisis CML / AML; Wright's stain of leukemic cells, primary transplant): more differentiated
- ability to propagate disease (mice succumbing) (blast crisis CML / AML; mice transplanted with Lin− cells from primary shRNA expressing leukemias, control 87%): 25%
- disease incidence in vivo (survival curve) (blast crisis CML / AML; primary transplant of established blast crisis CML cells, vs shLuc): reduced disease incidence in vivo
- transplanted leukemic cells in peripheral blood of surviving mice (blast crisis CML / AML; surviving mice): no detectable levels of transplanted leukemic cells

Reference: US10344276B2, “Diagnostic and treatment for chronic and acute phase myeloid leukemia” (Duke University, priority 2009, dated 2019)
